Results reported in US7915282B2, “C2-phenyl-substituted cyclic keto-enols used as pesticides and herbicides” (Bayer Aktiengesellschaft, priority 2000, dated 2011).

Key:
Type in all cases: in vivo
[1] = test system: green rice leaf hopper (Nephotettix cincticeps); test: Nephotettix test; conditions: active compound concentration of 1000 ppm; after 6 days; rice seedlings dipped
Description: [table] To produce a suitable preparation of active compound, 1 part by weight of active compound is mixed with the stated amounts of solvent and emulsifier, and the concentrate is diluted with emulsifier-containing, water to the desired concentration. Rice seedlings (Oryza sativa) are treated by being dipped into the preparation of active compound of the desired concentrated and are populated with the green rice leaf hopper (Nephotettix cincticeps) while the leaves are still moist. After the desired period of time, the kill in % is determined. 100% means that all leaf hoppers have been killed; 0% means that none of the leaf hoppers have been killed.

[2] = test system: larvae of the mustard beetle (Phaedon cochleariae); test: Phaedon larvae test; conditions: active compound concentration of 1000 ppm; after 7 days; cabbage leaves dipped
Description: (§1) [table] To produce a suitable preparation of active compound, 1 part by weight of active compound is mixed with the stated amounts of solvent and emulsifier, and the concentrate is diluted with emulsifier-containing water to the desired concentration. Cabbage leaves (Brassica oleracea) are treated by being dipped into the preparation of active compound of the desired concentration and are populated with larvae of the mustard beetle (Phaedon cochleariae) while the leaves are still moist. After the desired period of time, the kill in % is determined. 100% means that all beetle larvae have been killed; 0% means that none of the beetle larvae have been killed.

Digitaria [3] = test: Post-emergence test; conditions: after three weeks
Description: (§2) [table] To produce a suitable preparation of active compound, 1 part by weight of active compound is mixed with the stated amount of solvent, the stated amount of emulsifier is added and the concentrate is diluted with water to the desired concentration. Test plants of a height of 5-15 cm are sprayed with the preparation of active compound such that the particular amounts of active compound desired are applied per unit area. The concentration of the spray liquor is chosen such that the particular amount of active compound desired is applied in 1000 l of water/ha. After three weeks, the degree of damage to the plants is rated in % damage in comparison to the development of the untreated control. The figures denote: [table]

Galium = test: Post-emergence test; conditions: 125 g ai/ha, after three weeks
Description: as §2

Lolium [4] = test: Post-emergence test; conditions: 125 g ai/ha, after three weeks
Description: as §2

Oilseed rape = test: Post-emergence test; conditions: 125 g ai/ha, after three weeks
Description: as §2

Setaria [5] = test: Post-emergence test; conditions: after three weeks
Description: as §2

Sorghum = test: Post-emergence test; conditions: 125 g ai/ha, after three weeks
Description: as §2

Sugar beet [6] = test: Post-emergence test; conditions: after three weeks
Description: as §2

[7] = test system: greenhouse red spider mite (Tetranychus urticae); test: Tetranychus test (OP-resistant/dip treatment); conditions: active compound concentration of 1000 ppm; after 7 days; infested bean plants dipped
Description: [table] To produce a suitable preparation of active compound, 1 part by weight of active compound is mixed with the stated amounts of solvent and emulsifier, and the concentrate is diluted with emulsifier-containing water to the desired concentration. Bean plants (Phaseolus vulgaris) which are heavily infested by all stages of the greenhouse red spider mite (Tetranychus urticae) are dipped into a preparation of active compound of the desired concentration. After the desired period of time, the effect in % is determined. 100% means that all spider mites have been killed; 0% means that none of the spider mites have been killed.

white fly Bemisia tabaci = test: Bemisia test; conditions: active compound concentration of 1000 ppm; after 10 days; infested cotton plants dipped
Description: [table] To produce a suitable preparation of active compound, 1 part by weight of active compound is mixed with the stated amounts of solvent and emulsifier, and the concentrate is diluted with emulsifier-containing water to the desired concentrations. Cotton plants (Gossypium hirsutum) which are infested by eggs, larvae and pupae of the white fly Bemisia tabaci are dipped into a preparation of active compound of the desired concentration. After the desired period of time, the kill in % is determined. 100% means that all animals have been killed; 0% means that none of the animals have been killed.

Cassia = test: Post-emergence test; conditions: 125 g ai/ha, after three weeks
Description: as §2

Solanum = test: Post-emergence test; conditions: 125 g ai/ha, after three weeks
Description: as §2

Viola = test: Post-emergence test; conditions: 125 g ai/ha, after three weeks
Description: as §2

Wheat [8] = test: Post-emergence test; conditions: 125 g ai/ha, after three weeks
Description: as §2

[9] = test system: peach aphids (Myzus persicae); test: Myzus test; conditions: active compound concentration of 1000 ppm; after 6 days; infested cabbage leaves dipped
Description: as §1, with “oleracea) which are heavily infested by the peach aphids (Myzus persicae)” for “oleracea)”, “concentration.” for “concentration and are populated with larvae of the mustard beetle (Phaedon cochleariae) while the leaves are still moist.”, “aphids” for “beetle larvae”

Alopecurus [10] = test: Post-emergence test; conditions: after three weeks
Description: as §2

Avena fatua = test: Post-emergence test; conditions: after three weeks
Description: as §2

Polygonum = test: Post-emergence test; conditions: 60 g ai/ha, after three weeks
Description: as §2

Abutilo = test: Pre-emergence test; conditions: 125 g ai/ha, after three weeks
Description: (§3) [table] To produce a suitable preparation of active compound, 1 part by weight of active compound is mixed with the stated amount of solvent, the stated amount emulsifier is added and the concentrate is diluted with water to the desired concentration. Seeds of the test plants are sown in normal soil. After about 24 hours, the soil is sprayed with the preparation of active compound such that the particular amounts of active compound desired are applied per unit area. The concentration of the spray liquor is chosen such that the particular amounts of active compound desired are applied in 1000 l of water/ha. After three weeks, the degree of damage to the plants is rated in % damage in comparison to the development of the untreated controls. The figures denote: [table]

Alopecurus [11] = test: Pre-emergence test; conditions: after three weeks
Description: as §3

Bromus = test: Pre-emergence test; conditions: 125 g ai/ha, after three weeks
Description: as §3

Cyperus = test: Pre-emergence test; conditions: 125 g ai/ha, after three weeks
Description: as §3

Digitaria [12] = test: Pre-emergence test; conditions: 125 g ai/ha, after three weeks
Description: as §3

Lolium [13] = test: Pre-emergence test; conditions: after three weeks
Description: as §3

Setaria [14] = test: Pre-emergence test; conditions: after three weeks
Description: as §3

Soya bean [15] = test: Pre-emergence test; conditions: after three weeks
Description: as §3

Ipomoea = test: Post-emergence test; conditions: 125 g ai/ha, after three weeks
Description: as §2

Sugar beet [16] = test: Pre-emergence test; conditions: 125 g ai/ha, after three weeks
Description: as §3

Veronica = test: Pre-emergence test; conditions: 125 g ai/ha, after three weeks
Description: as §3

Soya bean [17] = test: Post-emergence test; conditions: 125 g ai/ha, after three weeks
Description: as §2

Chenopodium = test: Pre-emergence test; conditions: 60 g ai/ha, after three weeks
Description: as §3

Echinochloa = test: Pre-emergence test; conditions: 60 g ai/ha, after three weeks
Description: as §3

Wheat [18] = test: Pre-emergence test; conditions: 60 g ai/ha, after three weeks
Description: as §3

[19] = test system: caterpillars of the army worm (Spodoptera frugiperda); test: Spodoptera frugiperda test; conditions: active compound concentration of 1000 ppm; after 7 days; cabbage leaves dipped
Description: as §1, with “caterpillars” for “larvae”, “army worm (Spodoptera frugiperda)” for “mustard beetle (Phaedon cochleariae)”, “caterpillars” for “beetle larvae”

| SMILES | kill in % [2] | % damage Digitaria (Digitaria [3]; 125 g ai/ha) | % damage Galium (Galium) | % damage Lolium (Lolium [4]) | % damage Setaria (Setaria [5]; 125 g ai/ha) | % damage Sorghum (Sorghum) | % damage Sugar beet (Sugar beet [6]; 125 g ai/ha) | kill in % [7] | % damage Alopecurus (Alopecurus [11]; 125 g ai/ha) | % damage Digitaria (Digitaria [12]) | % damage Lolium (Lolium [13]; 125 g ai/ha) | % damage Setaria (Setaria [14]; 125 g ai/ha) | % damage Soya bean (Soya bean [15]; 125 g ai/ha) | further results |
| --- | --- | --- | --- | --- | --- | --- | --- | --- | --- | --- | --- | --- | --- | --- |
| CCc1cc(C)c(C2=C(O)C3(CCC(C)CC3)NC2=O)c(CC)c1 (centres unmarked) [Example I-1-a-2] | 100% | 80% | 80% | 70% | 95% | 80% | 0% | – | – | – | – | – | – | kill in % [1]: 100%; % damage Oilseed rape (Oilseed rape): 0% |
| CCc1cc(C)cc(C)c1C1=C(OC(=O)C(C)(C)C)C2(CCC(OC)CC2)OC1=O (centres unmarked) [Example I-2-b-10] | – | – | – | 80% | – | – | – | 100% | – | – | – | – | – | kill in % (white fly Bemisia tabaci): 100%; % damage Cassia (Cassia): 95%; % damage Solanum (Solanum): 80%; % damage Viola (Viola): 90%; % damage Wheat (Wheat [8]): 10% |
| C#Cc1cc(C)c(C2=C(OC(=O)OCC)C3(CCC(OC)CC3)NC2=O)c(C)c1 (centres unmarked) [Example I-1-c-4] | – | – | – | – | – | – | – | 100% | 95% | 100% | 100% | 100% | 20% | kill in % [9]: 100%; % damage Alopecurus (Alopecurus [10]; 60 g ai/ha): 90%; % damage Avena fatua (Avena fatua; 60 g ai/ha): 90%; % damage Digitaria (Digitaria [3]; 60 g ai/ha): 95%; % damage Polygonum (Polygonum): 70%; % damage Setaria (Setaria [5]; 60 g ai/ha): 100%; % damage Sugar beet (Sugar beet [6]; 60 g ai/ha): 10%; % damage Abutilo (Abutilo): 70%; % damage Bromus (Bromus): 100%; % damage Cyperus (Cyperus): 100% |
| C#Cc1cc(C)c(C2=C(O)C3(CCC(OC)CC3)NC2=O)c(C)c1 (centres unmarked) [Example I-1-a-21] | 100% | 100% | – | 95% | 99% | – | 0% | 100% | 100% | 100% | 100% | 100% | 0% | % damage Alopecurus (Alopecurus [10]; 125 g ai/ha): 100%; % damage Avena fatua (Avena fatua; 125 g ai/ha): 90%; % damage Ipomoea (Ipomoea): 70%; % damage Sugar beet (Sugar beet [16]): 0%; % damage Veronica (Veronica): 100% |
| CCc1cc(CC)c(C2=C(O)C3(CCC(C)CC3)NC2=O)c(CC)c1 (centres unmarked) [Example I-1-a-5] | – | 90% | 80% | – | 100% | 95% | – | – | – | – | – | – | – | % damage Soya bean (Soya bean [17]): 10%; % damage Alopecurus (Alopecurus [11]; 60 g ai/ha): 100%; % damage Chenopodium (Chenopodium): 70%; % damage Echinochloa (Echinochloa): 100%; % damage Lolium (Lolium [13]; 60 g ai/ha): 100%; % damage Setaria (Setaria [14]; 60 g ai/ha): 100%; % damage Soya bean (Soya bean [15]; 60 g ai/ha): 0%; % damage Wheat (Wheat [18]): 0% |
| CCc1cc(C)cc(C)c1C1=C(O)C2(CCCCC2)OC1=O [Example I-2-a-3] | 100% | – | – | – | – | – | – | – | – | – | – | – | – | kill in % [19]: 100% |
